The IC50 is the point on the concentration scale where inhibition reaches its midpoint.

For experiment [1], the target named is cyclic nucleotide phosphodiesterase. As to the kind of experiment: Phosphodiesterase inhibitory activity (cyclic AMP hydrolysis). The format is biochemical. The note with it: read-out: IC50 (50% inhibition of cyclic nucleotide phosphodiesterase activity); cyclic AMP 0.10-1.0 μM, pH 7.4.
Another experiment deals with adult mongrel dogs. As to the kind of experiment: Cardiotonic activity in anesthetized dogs (myocardial contractile force, i.v.). The format is in vivo. The note with it: Canis lupus familiaris, iv, vs pretreatment control, read-out: CF: Percent increase in cardiac force; for change in vivo at 0.47 mg/kg: i.v. dose 0.47 mpk; for change in vivo at 0.075 mg/kg: i.v. dose 0.075 mpk. The protocol:
The cardiotonic activity of the compounds was determined in accordance with the method of Alousi, A. A., et al., J. Cir. Res. 45, 666 (1979). Basically, adult mongrel dogs were anesthetized with sodium pentobarbital and artificially respired. Arterial pressure was recorded via a femoral artery and the pressure pulse used to trigger a cardiotachometer for heart rate. Left ventricular pressure was measured with a Millar catheter and dP/dt was derived. Cardiac output was determined by measuring ascending aortic blood flow with an electromagnetic flow probe and myocardial contractile force was measured with a Walton Brodie strain gauge sutured to the right ventricle. Lead II EKG was also recorded. A standard does of dopamine was administered to assess myocardial responsiveness. Test compounds were administered by i.v. infusion or bolus administration and the effects on cardiovascular parameters were determined. Dose-related effects of the test compound on BP, HR, dP/dt max., C.F. and C.O. were compared to pretreatment control values and expressed as a percentage change.

Take `Cc1cc(C2=NNC(=O)CC2)c2c(c1)N(C)C(=O)CO2` [Example 39, 6-(3,4-Dihydro-4,6-dimethyl-3-oxo-1,4(2H)-benzoxazin-8-yl)-2,3,4,5-tetrahydropyridazin-3-one]: in experiment [1], the IC50 is 28 µM. In the experiment with adult mongrel dogs, the change in vivo at 0.47 mg/kg is 18%.

As to `Cc1cc2c(c(C3=NNC(=O)CC3C)c1)OCC(=O)N2` (stereo not drawn) [Example 40, 6-(3,4-Dihydro-6-methyl-3-oxo-1,4(2H)-benzoxazin-8-yl)-2,3,4,5-tetrahydro-5-methylpyridazin-3-one], the IC50 in experiment [1] amounted to 26 µM. For the same compound, the change in vivo at 0.47 mg/kg in the experiment on adult mongrel dogs stood at 22%.

Take `Cc1cc(C2=NNC(=O)CC2C)c2c(c1)N(C)C(=O)CO2` (stereo not drawn) [Example 41, 6-(3,4-Dihydro-4,6-dimethyl-3-oxo-1,4(2H)-benzoxazin-8-yl)-2,3,4,5-tetrahydro-5-methylpyridan-3-one]: the IC50 in experiment [1] amounted to 7 µM. In addition, the change in vivo at 0.47 mg/kg with adult mongrel dogs is 60%.

With `Cc1cc2c(cc1C1=NNC(=O)CC1)OCC(=O)N2C` [Example 43, 6-(3,4-Dihydro-4,6-dimethyl-3-oxo-1,4(2H)-benzoxazin-7-yl)-2,3,4,5-tetrahydropyridazin-3-one], in experiment [1], the IC50 was 35 µM. In addition, the change in vivo at 0.47 mg/kg with adult mongrel dogs was found to be 104%.

Consider `O=C1CCC(c2ccc3c(c2)NC(=O)CS3)=NN1` [Example 53, 6-(3,4-Dihydro-3-oxo-1,4[2H]-benzothiazin-6-yl)-2,3,4,5-tetrahydropyridazin-3-one], for which the IC50 in experiment [1] amounted to 25 µM. For the same compound, the change in vivo at 0.075 mg/kg with adult mongrel dogs amounted to 21%.

Regarding `CN1C(=O)CSc2ccc(C3=NNC(=O)CC3)cc21` [Example 54, 6-(3,4-Dihydro-4-methyl-3-oxo-1,4[2H]-benzothiazin-6-yl)-2,3,4,5-tetrahydropyridazin-3-one], the IC50 in experiment [1] is 22 µM. The change in vivo at 0.075 mg/kg with adult mongrel dogs worked out at 11%.

For the origin of these results see US5081242A, “6-benzoxazinyl- and 6-benzothiazinyl 2,3,4,5-tetrahydropyridazin-3-ones” (Ortho Pharmaceutical Corporation, priority 1991, dated 1992).
